“And” between values parts separate entries of the source, which are not always exact repeats. Equal entries are not always repeated. “Also recorded” adds a separate entry of the source. Where two headings read alike, the source gives them in different places.
Key:
PDE4D5 mRNA = assay: Detection of PDE4D5 mRNA transcripts by RT-PCR in ASM cells; assay type: cell-based, human
Excerpt: (§1) Detection of PDE4D5 mRNA transcripts: Total RNA was extracted from the cultured ASM cells using the TRIzol method (Invitrogen), and cDNAs were isolated by RT-PCR using the SuperScript First Strand Synthesis System kit from Invitrogen, with the following oligonucleotide primer sets (Integrated DNA Technologies): for PDE4D5, 5′-[…]-3′ (forward; SEQ ID NO: 2) and 5′-[…]-3′ (reverse; SEQ ID NO: 3); and for β-actin, 5′-[…]-3′ (forward; SEQ ID NO: 4) and 5′-[…]-3′ (reverse; SEQ ID NO: 5). The reaction volume was 20 μl and cycling conditions used were 35 cycles of 30 sec denaturation at 95° C., followed by 30 sec annealing at 60° C. and elongation at 72° C. for 30 sec. Ex-Tag (Takara Biotechnology) was used as DNA polymerase. […] Following protein extraction and the addition of gel-loading buffer, the extracts were loaded on a 10% SDS-PAGE gel for immunoblotting after transfer to a PVDF membrane. The membranes were then incubated overnight with monoclonal mouse anti-human primary antibodies directed against phospho-CREB and -ATF1, phospho-ERK1/2, or α-actin, and levels were detected by ECL after a 1-hr incubation with a 1:2,000 dilution of HRP-conjugated rabbit anti-mouse secondary antibody, followed by exposure to autoradiography film. The protein band intensities were quantified by densitometry. siRNA-mediated knockdown of PKA: ASM cells were seeded into 6-well plates and, at ˜40% confluency, the medium was replaced with the reduced serum-containing medium, Opti-MEM (Invitrogen). The cells were then transfected twice during a 24-hr interval with two pools of three siRNA duplexes, each pool targeted against the human PKAα or PKAγ catalytic subunits (Santa Cruz Biotechnology; sc-36240 and sc-36236, respectively), or with a non-targeted control (scrambled) siRNA duplex, using Oligofectamine (Invitrogen) as the transfection agent. The pools of siRNAs were applied to each well at a final concentration of 100 nM for each siRNA preparation. […] Transfection of ASM cells with adeno-βARK-ct: Adenovirus (adeno)-βARK-ct, an adenovirus vector encoding the βARK1 carboxyl-terminal domain which blocks Gβγ signaling (25,26), and adeno-β-gal, an adenovirus vector expressing lacZ as a negative control, were constructed using the AdenoX adenovirus construction kit (BD-Clontech). Recombinant plaques were isolated and propagated in HEK293 cells (Invitrogen), with viral purification using the cesium chloride gradient method, and viral titer detected by plaque assay. The ASM cells were transfected with either of the adenoviral vectors at a multiplicity of infection (MOI) of 100, and experiments were conducted at 24 hr following adenoviral tranfections. Pharmacodynamic studies of constrictor and relaxation responsiveness in rabbit ASM tissues: Following initial sedation and subsequent general anesthesia with intramuscular injections of xylazine (10 mg/kg) and ketamine (50 mg/kg), respectively, rabbits were sacrificed with an intravenously administered overdose of sodium pentobarbital (100 mg/kg). As described previously (16), the tracheae were excised via open thoracotomy, the loose connective tissue and epithelium were scraped and removed, and the tracheae were divided into 8 ring segments, each of 6-8 mm in length. […] After these incubations, the tissues were placed in organ baths containing modified Krebs-Ringer solution aerated with 5% CO2 in oxygen (pH of 7.35-7.40), and attached to force transducers to continuously monitor isometric tension. […] The constrictor and relaxation dose-response curves were analyzed with respect to each tissue's maximal isometric contractile force (Tmax) to ACh and maximal relaxation response (Rmax) to isoproterenol from the initial level of active cholinergic contraction. Statistical analyses: Results are expressed as mean±SE values. Comparisons between groups were made using the Student's t-test (two-tailed) or ANOVA with Tukey's post-test analysis, where appropriate.

rabbit ASM tissues [1] = assay: Relaxation responsiveness to isoproterenol in isolated rabbit ASM tissues half-maximally contracted with ACh
Excerpt: as §1

human ASM cells [2] = assay: Assay of cAMP PDE activity in ASM cell lysates; assay type: cell-based
ERK1/2 = assay: Immunoblot analysis of ERK1/2 phosphorylation in ASM cells; assay type: cell-based, human
Excerpt: as §1

rabbit ASM tissues [3] = assay: Constrictor responsiveness to acetylcholine (ACh) in isolated rabbit ASM tissues, isometric tension in organ bath
Excerpt: as §1

CREB/ATF1 = assay: Immunoblot analysis of CREB/ATF1 phosphorylation in ASM cells; assay type: cell-based, human
Excerpt: as §1

human ASM cells [4] = assay: Assay of cAMP PDE activity in ASM cell lysates; assay type: cell-based; details: for PDE activity, fold above control: cells incubated 24 hr with the agent (PGE2 or forskolin 100 μM; salmeterol or isoproterenol 10 μM)
Protocol: Assay of cAMP PDE activity: Levels of cAMP PDE activity were assayed in ASM cell lysates using a colorimetric, non-radioactive enzymatic assay kit from Biomol, as per the manufacture's protocol. PDE activity was determined following exposure of ASM cells for 24 hr to either vehicle alone (control), PGE2 (100 μM), or forskolin (100 μM) in the absence and presence of pretreatment with rolipram (10 μM), cycloheximide (100 μM), actinomycin D (4 μM), or H89 (10 μM).
In each case, the measured levels of PDE activity were standardized to the protein content in the cell extracts.

[5] = PGE2 100 nM, isoproterenol 10 μM

Structure (SMILES): N#CC(=C(/N)Sc1ccccc1N)/C(C#N)=C(\N)Sc1ccccc1N [U0126]
- effect of pretreatment on PGE2-induced upregulated PDE4D5 mRNA expression (PDE4D5 mRNA): largely prevented; also recorded: ablated
- effect of pretreatment on β2AR agonist (isoproterenol)-induced upregulated PDE4D5 mRNA expression (PDE4D5 mRNA): largely prevented; also recorded: ablated
- effect of pretreatment on PGE2-induced impaired relaxation to isoproterenol (rabbit ASM tissues [1]): abrogated
- effect of pretreatment on salmeterol-induced impaired relaxation to isoproterenol (rabbit ASM tissues [1]): completely ablated; also recorded: prevents
- effect of the agent alone on relaxation responses to isoproterenol (rabbit ASM tissues [1]): no significant effect; also recorded: did not exhibit any significant changes
- effect of pretreatment on PGE2- and forskolin-induced increases in PDE activity (human ASM cells [2]): completely ablated
- effect of pretreatment on salmeterol- and isoproterenol-induced increase in PDE activity (human ASM cells [2]): prevented; also recorded: ablated
- effect of the agent alone on basal PDE activity (human ASM cells [2]): neither H89 nor U0126 alone had a significant effect
- effect on PGE2-induced phosphorylation of ERK1/2 (ERK1/2): completely abrogated; also recorded: ablated
- effect on isoproterenol (β2AR agonist)-induced phosphorylation of ERK1/2 (ERK1/2): ablated
- effect of pretreatment on PGE2-induced increase in constrictor responsiveness to ACh (rabbit ASM tissues [3]): abrogated
- effect of pretreatment on salmeterol-induced increase in constrictor responsiveness to ACh (rabbit ASM tissues [3]): completely abrogated; also recorded: prevents
- effect of the agent alone on constrictor responses to ACh (rabbit ASM tissues [3]): no significant effect; also recorded: did not exhibit any significant changes
- effect on PGE2-induced phosphorylation of CREB/ATF1 (CREB/ATF1): abrogated; also recorded: ablated

Structure (SMILES): C=C[C@@]1(C)CC(=O)[C@]2(O)[C@@]3(C)[C@@H](O)CCC(C)(C)[C@@H]3[C@H](O)[C@H](OC(C)=O)[C@@]2(C)O1 [forskolin]
- PDE activity, fold above control (human ASM cells [4]): 4.01 fold

Structure (SMILES): CC(C)NCC(O)c1ccc(O)c(O)c1 (centres unmarked) [isoproterenol]
- time of peak PDE4D5 mRNA induction (PDE4D5 mRNA; PGE2 100 nM, salmeterol or isoproterenol 10 μM): 6 h
- peak PDE4D5 mRNA expression, fold above unstimulated cells (PDE4D5 mRNA; densitometric analysis, 3 experiments, PGE2 100 nM, salmeterol or isoproterenol 10 μM): 5.7 fold
- time of peak ERK1/2 phosphorylation (ERK1/2; PGE2 100 nM, isoproterenol or salmeterol 10 μM): 20 min
- ERK1/2 phosphorylation in cells treated with the agent (ERK1/2; PGE2 or forskolin 100 nM, isoproterenol or salmeterol 10 μM): increased phosphorylation of ERK1/2; also recorded: enhanced ERK1/2 phosphorylation
- increase in ERK1/2 phosphorylation, fold above control (vehicle-treated) cells (ERK1/2; densitometric ratios, mean±SE, PGE2 30 min, isoproterenol 20 min): 2.30±0.18 fold and 2.3 fold
- cAMP PDE (PDE4) activity relative to vehicle-treated control cells (human ASM cells [4]; cells exposed 24 hr to the agent): significantly increased
- PDE activity, fold above control (human ASM cells [4]): ~2 fold
- phosphorylation of CREB and ATF1 in cells treated with the agent (CREB/ATF1; [5]): transiently increased phosphorylation
- time of peak CREB/ATF1 phosphorylation (CREB/ATF1; [5]): 30 min

Structure (SMILES): C[C@@H]1C[C@@H]([C@H](O)CC2CC(=O)NC(=O)C2)C(=O)[C@@H](C)C1 [cycloheximide]
- effect of pretreatment on PGE2- and forskolin-induced increases in PDE activity (human ASM cells [2]; PGE2 or forskolin x 24 hr (100 μM in text, 100 nM in legends)): completely ablated
- effect of pretreatment on salmeterol- and isoproterenol-induced increase in PDE activity (human ASM cells [2]; salmeterol or isoproterenol 10 μM x 24 hr): completely ablated
- effect of the agent alone on basal PDE activity (human ASM cells [4]; no cAMP-elevating agent): neither actinomycin D nor cycloheximide alone significantly affected

Structure (SMILES): Oc1ccc(-c2nc(-c3ccncc3)c(-c3ccc(F)cc3)[nH]2)cc1 [SB202190]
- effect of pretreatment on PGE2-induced upregulated PDE4D5 mRNA expression (PDE4D5 mRNA; PGE2 100 nM, 6 hr): neither the p38 MAPK nor JNK inhibitor (lanes 5 and 6, respectively) had an attenuating effect
- effect of pretreatment on β2AR agonist (isoproterenol)-induced upregulated PDE4D5 mRNA expression (PDE4D5 mRNA; isoproterenol 10 μM, 6 hr): unaffected; also recorded: no effect
- effect on PGE2-induced phosphorylation of ERK1/2 (ERK1/2; PGE2 100 nM, 30 min): neither PGE2-induced phosphorylation of ERK1/2 nor CREB/ATF was affected
- effect on PGE2-induced phosphorylation of CREB/ATF1 (CREB/ATF1; PGE2 100 nM, 30 min): neither PGE2-induced phosphorylation of ERK1/2 nor CREB/ATF was affected

Structure (SMILES): Oc1c2ccccc2c2c3c(cccc13)N=N2 [SP600125]
- effect of pretreatment on β2AR agonist (isoproterenol)-induced upregulated PDE4D5 mRNA expression (PDE4D5 mRNA; isoproterenol 10 μM, 6 hr): no effect

Source: patent US8569229B2, “Compositions and methods which modulate G-protein signaling for the treatment of inflammatory disorders such as asthma and allergic conjunctivitis” (The Children's Hospital of Philadelphia, priority 2008, dated 2013)
